Measured values: PubChem BioAssay AID248 (DTP/NCI, 2004)
“And” between values parts separate entries of the source, which are not always exact repeats. Equal values may be shown once. Toxic doses and inconclusive results are not listed.

System: L1210 leukemia ip in BDF1 mice, survival T/C
Test: NCI In Vivo Anticancer Drug Screen. Data for tumor model L1210 Leukemia (intraperitoneal) in B6D2F1 (BDF1) mice
Details: endpoint: mean survival time, higher = longer survival
Method in brief: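 Tumor was transplanted into mice, which were then dosed with test compound or vehicle alone. Survival was recorded for each group, and the treated figure was expressed relative to the control figure.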

[1] = dose: 100.0 mg/kg/injection, schedule: Q01DX009 (ip), vehicle: saline with Tween-80
[2] = dose: 100.0 mg/kg/injection, schedule: Q04DX003 (ip), vehicle: saline with Tween-80
[3] = dose: 200.0 mg/kg/injection, schedule: Q01DX009 (ip), vehicle: saline with Tween-80
[4] = dose: 200.0 mg/kg/injection, schedule: Q04DX003 (ip), vehicle: saline with Tween-80
[5] = dose: 400.0 mg/kg/injection, schedule: Q01DX009 (ip), vehicle: saline with Tween-80
[6] = dose: 400.0 mg/kg/injection, schedule: Q04DX003 (ip), vehicle: saline with Tween-80
[7] = dose: 100.0 mg/kg/injection, schedule: Q01DX009 (ip), vehicle: other
[8] = dose: 200.0 mg/kg/injection, schedule: Q01DX009 (ip), vehicle: other
[9] = dose: 400.0 mg/kg/injection, schedule: Q01DX009 (ip), vehicle: other
[10] = dose: 100.0 mg/kg/injection, schedule: Q01DX001 (ip), vehicle: saline
[11] = dose: 200.0 mg/kg/injection, schedule: Q01DX001 (ip), vehicle: saline
[12] = dose: 400.0 mg/kg/injection, schedule: Q01DX001 (ip), vehicle: saline

O=C(O)CC(NC(=O)COc1ccc(F)cc1)C(=O)O (centres undefined)
T/C (dose: 100.0 mg/kg/injection, schedule: Q04DX002 (ip), vehicle: Klucel (hydroxypropylcellulose) (HPC)): 89 % of control
T/C (dose: 200.0 mg/kg/injection, schedule: Q04DX002 (ip), vehicle: Klucel (hydroxypropylcellulose) (HPC)): 89 % of control
T/C (dose: 400.0 mg/kg/injection, schedule: Q04DX002 (ip), vehicle: Klucel (hydroxypropylcellulose) (HPC)): 96 % of control

CC(=O)OC1C=CCC2C(=O)c3c(c(O)c4ccccc4c3O)C(=O)C12 (centres undefined)
T/C [1]: 95 % of control
T/C [2]: 95 % of control
T/C [3]: 105 % of control
T/C [4]: 95 % of control
T/C [5]: 100 % of control
T/C [6]: 90 % of control

C=CCN(CC#N)CC#N
T/C (dose: 5.0 mg/kg/injection, schedule: Q04DX003 (ip), vehicle: Klucel (hydroxypropylcellulose) (HPC)): 98 % of control
T/C (dose: 10.0 mg/kg/injection, schedule: Q04DX003 (ip), vehicle: Klucel (hydroxypropylcellulose) (HPC)): 100 % of control (2×) and 86 % of control

Cc1cccc(Cl)c1NC(=O)C(C)C
T/C [7]: 101 % of control
T/C [8]: 104 % of control
T/C [9]: 98 % of control

C#CCN(C)CCO
T/C [2]: 97 % of control
T/C [4]: 106 % of control
T/C [6]: 100 % of control

CC(=O)Nc1c(Cl)c(Cl)c2c(c1Cl)Cc1cc(F)ccc1-2
T/C (dose: 62.5 mg/kg/injection, schedule: Q01DX Z (ip), vehicle: saline): 97 % of control
T/C [2]: 101 % of control
T/C (dose: 125.0 mg/kg/injection, schedule: Q01DX Z (ip), vehicle: saline): 95 % of control
T/C [4]: 93 % of control
T/C (dose: 250.0 mg/kg/injection, schedule: Q01DX Z (ip), vehicle: saline): 101 % of control
T/C [6]: 95 % of control
T/C (dose: 500.0 mg/kg/injection, schedule: Q01DX Z (ip), vehicle: saline): 95 % of control
T/C (dose: 650.0 mg/kg/injection, schedule: Q01DX Z (ip), vehicle: saline): 96 % of control
T/C (dose: 800.0 mg/kg/injection, schedule: Q01DX Z (ip), vehicle: saline): 102 % of control

CCC(=O)c1c(C)c(C)cc2ccccc12
T/C [7]: 97 % of control
T/C [8]: 95 % of control
T/C [9]: 108 % of control

CCCCn1c2ccccc2c2ccccc21
T/C (dose: 50.0 mg/kg/injection, schedule: Q04DX003 (ip), vehicle: saline with Tween-80): 96 % of control
T/C [2]: 96 % of control
T/C [4]: 102 % of control

Cc1ccc(C(=O)/C=C/c2ccc(N(C)C)cc2)cc1
T/C [1]: 90 % of control
T/C [3]: 93 % of control
T/C [5]: 97 % of control

Nc1cc(Nc2ccccc2)nc(=O)[nH]1
T/C (dose: 100.0 mg/kg/injection, schedule: Q01DX001 (ip), vehicle: Klucel (hydroxypropylcellulose) (HPC)): 94 % of control
T/C (dose: 200.0 mg/kg/injection, schedule: Q01DX001 (ip), vehicle: Klucel (hydroxypropylcellulose) (HPC)): 97 % of control

CN(C)[C@@H]1C(=O)C(C(=O)NCNC(CO)(CO)CO)=C(O)[C@@]2(O)C(=O)C3=C(O)c4c(O)cccc4[C@@](C)(O)[C@H]3C[C@@H]12
T/C (dose: 1.0 mg/kg/injection, schedule: Q01DX Z (ip), vehicle: saline): 100 % of control
T/C (dose: 4.0 mg/kg/injection, schedule: Q01DX Z (ip), vehicle: saline): 100 % of control
T/C (dose: 14.0 mg/kg/injection, schedule: Q01DX Z (ip), vehicle: saline): 108 % of control
T/C (dose: 15.0 mg/kg/injection, schedule: Q01DX Z (ip), vehicle: saline): 102 % of control
T/C (dose: 25.0 mg/kg/injection, schedule: Q01DX009 (ip), vehicle: saline): 104 % of control
T/C (dose: 28.0 mg/kg/injection, schedule: Q01DX Z (ip), vehicle: saline): 94 % of control
T/C (dose: 50.0 mg/kg/injection, schedule: Q01DX009 (ip), vehicle: saline): 97 % of control and 101 % of control
T/C (dose: 60.0 mg/kg/injection, schedule: Q01DX Z (ip), vehicle: saline): 100 % of control
T/C [10]: 93 % of control and 95 % of control
T/C (dose: 100.0 mg/kg/injection, schedule: Q01DX009 (ip), vehicle: saline): 98 % of control and 97 % of control
T/C (dose: 100.0 mg/kg/injection, schedule: Q04DX003 (ip), vehicle: acetone): 92 % of control
T/C (dose: 112.0 mg/kg/injection, schedule: Q01DX Z (ip), vehicle: saline): 93 % of control
T/C (dose: 120.0 mg/kg/injection, schedule: Q01DX Z (ip), vehicle: saline): 113 % of control
T/C [11]: 108 % of control and 106 % of control
T/C (dose: 200.0 mg/kg/injection, schedule: Q04DX003 (ip), vehicle: acetone): 100 % of control and 94 % of control
T/C (dose: 224.0 mg/kg/injection, schedule: Q01DX Z (ip), vehicle: saline): 115 % of control
T/C (dose: 240.0 mg/kg/injection, schedule: Q01DX Z (ip), vehicle: saline): 111 % of control
T/C (dose: 266.0 mg/kg/injection, schedule: Q01DX009 (ip), vehicle: saline): 96 % of control
T/C [12]: 104 % of control and 92 % of control
T/C (dose: 400.0 mg/kg/injection, schedule: Q04DX003 (ip), vehicle: acetone): 91 % of control and 90 % of control

O=C(Nc1ccc(OCc2ccccc2)cc1)c1ccc([N+](=O)[O-])s1
T/C (dose: 400.0 mg/kg/injection, schedule: Q01DX005 (ip), vehicle: water): 89 % of control

O=NN(CCCl)C(=O)NC1CCC(CC2CCC(NC(=O)N(CCCl)N=O)CC2)CC1 (centres undefined)
T/C (dose: 6.0 mg/kg/injection, schedule: Q01DX001 (ip), vehicle: gum acacia): 105 % of control
T/C (dose: 12.0 mg/kg/injection, schedule: Q01DX001 (ip), vehicle: gum acacia): 151 % of control
T/C (dose: 46.0 mg/kg/injection, schedule: Q01DX001 (ip), vehicle: gum acacia): 184 % of control
T/C (dose: 93.0 mg/kg/injection, schedule: Q01DX001 (ip), vehicle: gum acacia): 298 % of control
T/C (dose: 187.0 mg/kg/injection, schedule: Q01DX001 (ip), vehicle: gum acacia): 315 % of control
T/C (dose: 250.0 mg/kg/injection, schedule: Q01DX001 (ip), vehicle: gum acacia): 318 % of control
T/C (dose: 375.0 mg/kg/injection, schedule: Q01DX001 (ip), vehicle: gum acacia): 245 % of control

Cc1nc2ccc(Cl)c(Cl)c2s1
T/C (dose: 100.0 mg/kg/injection, schedule: Q01DX001 (ip), vehicle: saline with Tween-80): 106 % of control
T/C (dose: 200.0 mg/kg/injection, schedule: Q01DX001 (ip), vehicle: saline with Tween-80): 104 % of control
T/C (dose: 400.0 mg/kg/injection, schedule: Q01DX001 (ip), vehicle: saline with Tween-80): 100 % of control

CC(C(c1ccccc1)c1ccc(Cl)cc1)[N+](=O)[O-] (centres undefined)
T/C (dose: 22.0 mg/kg/injection, schedule: Q01DX009 (ip), vehicle: saline with Tween-80): 102 % of control
T/C (dose: 33.0 mg/kg/injection, schedule: Q01DX009 (ip), vehicle: saline with Tween-80): 96 % of control
T/C (dose: 50.0 mg/kg/injection, schedule: Q01DX009 (ip), vehicle: saline with Tween-80): 94 % of control
T/C (dose: 75.0 mg/kg/injection, schedule: Q01DX009 (ip), vehicle: saline with Tween-80): 112 % of control
T/C [10]: 87 % of control
T/C [1]: 103 % of control
T/C [2]: 95 % of control
T/C (dose: 100.0 mg/kg/injection, schedule: Q04DX003 (ip), vehicle: saline): 102 % of control
T/C [11]: 95 % of control
T/C [4]: 102 % of control
T/C (dose: 200.0 mg/kg/injection, schedule: Q04DX003 (ip), vehicle: saline): 89 % of control
T/C [12]: 88 % of control

CC1OC(O[C@@H]2C=C3CC[C@@H]4[C@H](CC[C@]5(C)[C@@H](c6ccc(=O)oc6)CC[C@]45O)[C@@]3(C)CC2)C(O)C(OC2OC(CO)C(O)C(O)C2O)C1O (some centres undefined)
T/C (dose: 1.0 mg/kg/injection, schedule: Q01DX015 (sc), vehicle: steriod suspending solution): 95 % of control
T/C (dose: 2.0 mg/kg/injection, schedule: Q01DX015 (sc), vehicle: steriod suspending solution): 98 % of control
T/C (dose: 4.0 mg/kg/injection, schedule: Q01DX015 (sc), vehicle: steriod suspending solution): 96 % of control
T/C (dose: 5.0 mg/kg/injection, schedule: Q01DX001 (ip), vehicle: saline): 95 % of control
T/C (dose: 8.0 mg/kg/injection, schedule: Q01DX015 (sc), vehicle: steriod suspending solution): 97 % of control
T/C (dose: 10.0 mg/kg/injection, schedule: Q01DX001 (ip), vehicle: saline): 106 % of control
T/C (dose: 16.0 mg/kg/injection, schedule: Q01DX015 (sc), vehicle: steriod suspending solution): 103 % of control
T/C (dose: 20.0 mg/kg/injection, schedule: Q01DX001 (ip), vehicle: saline): 97 % of control
T/C (dose: 32.0 mg/kg/injection, schedule: Q01DX015 (sc), vehicle: steriod suspending solution): 100 % of control
